Data: ChEMBL document CHEMBL3885881, “DrugMatrix”

Species: Rattus norvegicus
Assay: DrugMatrix - Regimen: Daily Repeat
Format: toxicity, organism-based, Sprague-Dawley
Set-up: regimen Daily Repeat, gender Male, age 6-8 weeks
Conditions: in vivo, po, route oral GAVAGE, vehicle 100 % WATER; for ABSOLUTE BASOPHIL / ABSOLUTE EOSINOPHIL / ABSOLUTE LYMPHOCYTE / ABSOLUTE MONOCYTE / ABSOLUTE SEGMENTED NEUTROPHIL / BASOPHIL / EOSINOPHIL / ERYTHROCYTE COUNT / HEMATOCRIT / HEMOGLOBIN / LEUKOCYTE COUNT / LYMPHOCYTE / MEAN CORPUSCULAR HEMOGLOBIN / MEAN CORPUSCULAR HEMOGLOBIN CONCENTRATION / MEAN CORPUSCULAR VOLUME / MONOCYTE / NEUTROPHIL / NUCLEATED RED BLOOD CELLS / PLATELET COUNT: tissue Blood; for ALANINE AMINOTRANSFERASE / ALBUMIN / ALKALINE PHOSPHATASE / ASPARTATE AMINOTRANSFERASE / BLOOD UREA NITROGEN / CARBON DIOXIDE / CHLORIDE / CHOLESTEROL / CREATINE PHOSPHOKINASE / CREATININE / GLUCOSE / LACTATE DEHYDROGENASE / LIPASE / PHOSPHORUS / POTASSIUM / SODIUM / TOTAL BILIRUBIN / TOTAL PROTEIN / URIC ACID: tissue Plasma
[1] = 3 mg/kg, 120 h, dose level Low, time 5 day
[2] = 47 mg/kg, 72 h, dose level High, time 3 day
[3] = 47 mg/kg, 120 h, dose level High, time 5 day

Structure (SMILES): CN(C)CC[C@@H](c1ccc(Cl)cc1)c1ccccn1 [DEXCHLORPHENIRAMINE]
- ABSOLUTE BASOPHIL [1]: 0 CELLS/uL
- ABSOLUTE EOSINOPHIL [1]: 0 CELLS/uL
- ABSOLUTE LYMPHOCYTE [1]: 15600.33 CELLS/uL
- ABSOLUTE MONOCYTE [1]: 181.67 CELLS/uL
- ABSOLUTE SEGMENTED NEUTROPHIL [1]: 884.67 CELLS/uL
- BASOPHIL [1]: 0%
- EOSINOPHIL [1]: 0%
- ERYTHROCYTE COUNT [1]: 5.61 x10E6/uL
- HEMATOCRIT [1]: 35.43%
- HEMOGLOBIN [1]: 14.3 G/DL
- LEUKOCYTE COUNT [1]: 16.67 x10E3/uL
- LYMPHOCYTE [1]: 93.67%
- MEAN CORPUSCULAR HEMOGLOBIN [1]: 25.5 pg
- MEAN CORPUSCULAR HEMOGLOBIN CONCENTRATION [1]: 40.33 G/DL
- MEAN CORPUSCULAR VOLUME [1]: 63.17 fL
- MONOCYTE [1]: 1%
- NEUTROPHIL [1]: 5.33%
- NUCLEATED RED BLOOD CELLS [1]: 0.33 /100WBC
- PLATELET COUNT [1]: 1254.33 x10E3/uL
- ALANINE AMINOTRANSFERASE [1]: 55.33 u/L
- ALBUMIN [1]: 4.17 G/DL
- ALKALINE PHOSPHATASE [1]: 407 u/L
- ASPARTATE AMINOTRANSFERASE [1]: 86.33 u/L
- BLOOD UREA NITROGEN [1]: 15 mg/dL
- CARBON DIOXIDE [1]: 32 mmol/L
- CHLORIDE [1]: 102 MEQ/L
- CHOLESTEROL [1]: 63.33 mg/dL
- CREATINE PHOSPHOKINASE [1]: 451.67 u/L
- CREATININE [1]: 0.18 mg/dL
- GLUCOSE [1]: 121.33 mg/dL
- LACTATE DEHYDROGENASE [1]: 251 u/L
- LIPASE [1]: 10.33 u/L
- PHOSPHORUS [1]: 12.1 mg/dL
- POTASSIUM [1]: 6.1 MEQ/L
- SODIUM [1]: 144.9 MEQ/L
- TOTAL BILIRUBIN [1]: 0.23 mg/dL
- TOTAL PROTEIN [1]: 6.07 G/DL
- URIC ACID [1]: 1.37 mg/dL
- ABSOLUTE BASOPHIL [2]: 0 CELLS/uL
- ABSOLUTE EOSINOPHIL [2]: 62.67 CELLS/uL
- ABSOLUTE LYMPHOCYTE [2]: 12240 CELLS/uL
- ABSOLUTE MONOCYTE [2]: 133 CELLS/uL
- ABSOLUTE SEGMENTED NEUTROPHIL [2]: 864.33 CELLS/uL
- BASOPHIL [2]: 0%
- EOSINOPHIL [2]: 0.67%
- ERYTHROCYTE COUNT [2]: 5.93 x10E6/uL
- HEMATOCRIT [2]: 38.13%
- HEMOGLOBIN [2]: 14.77 G/DL
- LEUKOCYTE COUNT [2]: 13.3 x10E3/uL
- LYMPHOCYTE [2]: 91.33%
- MEAN CORPUSCULAR HEMOGLOBIN [2]: 24.9 pg
- MEAN CORPUSCULAR HEMOGLOBIN CONCENTRATION [2]: 38.73 G/DL
- MEAN CORPUSCULAR VOLUME [2]: 64.3 fL
- MONOCYTE [2]: 1%
- NEUTROPHIL [2]: 7%
- NUCLEATED RED BLOOD CELLS [2]: 0 /100WBC
- PLATELET COUNT [2]: 1535.33 x10E3/uL
- ALANINE AMINOTRANSFERASE [2]: 44.33 u/L
- ALBUMIN [2]: 4.03 G/DL
- ALKALINE PHOSPHATASE [2]: 352 u/L
- ASPARTATE AMINOTRANSFERASE [2]: 75 u/L
- BLOOD UREA NITROGEN [2]: 14.67 mg/dL
- CARBON DIOXIDE [2]: 33.67 mmol/L
- CHLORIDE [2]: 102 MEQ/L
- CHOLESTEROL [2]: 65 mg/dL
- CREATINE PHOSPHOKINASE [2]: 246.67 u/L
- CREATININE [2]: 0.17 mg/dL
- GLUCOSE [2]: 153.67 mg/dL
- LACTATE DEHYDROGENASE [2]: 134 u/L
- LIPASE [2]: 10.67 u/L
- PHOSPHORUS [2]: 12.47 mg/dL
- POTASSIUM [2]: 6.39 MEQ/L
- SODIUM [2]: 145.23 MEQ/L
- TOTAL BILIRUBIN [2]: 0.17 mg/dL
- TOTAL PROTEIN [2]: 5.97 G/DL
- URIC ACID [2]: 1.93 mg/dL
- ABSOLUTE BASOPHIL [3]: 0 CELLS/uL
- ABSOLUTE EOSINOPHIL [3]: 0 CELLS/uL
- ABSOLUTE LYMPHOCYTE [3]: 14891.67 CELLS/uL
- ABSOLUTE MONOCYTE [3]: 0 CELLS/uL
- ABSOLUTE SEGMENTED NEUTROPHIL [3]: 875 CELLS/uL
- BASOPHIL [3]: 0%
- EOSINOPHIL [3]: 0%
- ERYTHROCYTE COUNT [3]: 6.11 x10E6/uL
- HEMATOCRIT [3]: 38.9%
- HEMOGLOBIN [3]: 14.93 G/DL
- LEUKOCYTE COUNT [3]: 15.77 x10E3/uL
- LYMPHOCYTE [3]: 94.33%
- MEAN CORPUSCULAR HEMOGLOBIN [3]: 24.47 pg
- MEAN CORPUSCULAR HEMOGLOBIN CONCENTRATION [3]: 38.37 G/DL
- MEAN CORPUSCULAR VOLUME [3]: 63.73 fL
- MONOCYTE [3]: 0%
- NEUTROPHIL [3]: 5.67%
- NUCLEATED RED BLOOD CELLS [3]: 0 /100WBC
- PLATELET COUNT [3]: 1215 x10E3/uL
- ALANINE AMINOTRANSFERASE [3]: 35.67 u/L
- ALBUMIN [3]: 4.17 G/DL
- ALKALINE PHOSPHATASE [3]: 323 u/L
- ASPARTATE AMINOTRANSFERASE [3]: 76.67 u/L
- BLOOD UREA NITROGEN [3]: 14.67 mg/dL
- CARBON DIOXIDE [3]: 30.67 mmol/L
- CHLORIDE [3]: 101.33 MEQ/L
- CHOLESTEROL [3]: 61.67 mg/dL
- CREATINE PHOSPHOKINASE [3]: 322 u/L
- CREATININE [3]: 0.13 mg/dL
- GLUCOSE [3]: 169.67 mg/dL
- LACTATE DEHYDROGENASE [3]: 202.67 u/L
- LIPASE [3]: 11 u/L
- PHOSPHORUS [3]: 12.57 mg/dL
- POTASSIUM [3]: 5.79 MEQ/L
- SODIUM [3]: 144.7 MEQ/L
- TOTAL BILIRUBIN [3]: 0.2 mg/dL
- TOTAL PROTEIN [3]: 6.33 G/DL
- URIC ACID [3]: 1.57 mg/dL
